# Source: ChEMBL document CHEMBL1649082, “Trends in kinase selectivity: insights for target class-focused library screening” (J Med Chem, 2011)
# Key:
# Design in all cases: scale not given: the % may be the effect or the level left
# [1] = target: T1, Inhibitor of nuclear factor kappa-B kinase subunit alpha (Homo sapiens) (UniProt O15111); experiment: Inhibition of IKKalpha assessed as activity at 1 uM relative to control
# T1 sequence (whole entry): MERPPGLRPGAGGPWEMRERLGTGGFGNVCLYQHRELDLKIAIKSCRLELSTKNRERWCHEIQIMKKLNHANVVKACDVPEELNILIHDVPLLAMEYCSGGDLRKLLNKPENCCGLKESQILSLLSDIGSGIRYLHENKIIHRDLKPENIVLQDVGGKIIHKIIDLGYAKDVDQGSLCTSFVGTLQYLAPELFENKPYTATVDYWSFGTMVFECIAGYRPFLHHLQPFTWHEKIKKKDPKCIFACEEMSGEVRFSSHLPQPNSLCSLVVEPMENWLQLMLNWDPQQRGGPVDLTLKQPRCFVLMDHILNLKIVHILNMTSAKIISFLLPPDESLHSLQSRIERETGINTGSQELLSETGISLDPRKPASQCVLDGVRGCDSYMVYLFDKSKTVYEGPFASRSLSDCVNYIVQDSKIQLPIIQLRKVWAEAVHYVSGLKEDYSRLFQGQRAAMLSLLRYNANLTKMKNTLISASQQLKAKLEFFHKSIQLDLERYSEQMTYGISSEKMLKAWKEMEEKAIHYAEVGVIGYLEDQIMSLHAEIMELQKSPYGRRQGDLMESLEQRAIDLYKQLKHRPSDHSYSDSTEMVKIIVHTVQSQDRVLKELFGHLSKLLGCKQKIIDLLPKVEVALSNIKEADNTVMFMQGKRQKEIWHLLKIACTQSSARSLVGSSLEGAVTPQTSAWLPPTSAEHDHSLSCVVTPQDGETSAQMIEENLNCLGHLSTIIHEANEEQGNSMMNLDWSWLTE
# [2] = target: Cyclin-dependent kinase 7 (Homo sapiens) (UniProt P50613); experiment: Inhibition of CDK7 assessed as activity at 1 uM relative to control
# Cyclin-dependent kinase 7 (Homo sapiens), sequence (P50613 whole entry, canonical isoform): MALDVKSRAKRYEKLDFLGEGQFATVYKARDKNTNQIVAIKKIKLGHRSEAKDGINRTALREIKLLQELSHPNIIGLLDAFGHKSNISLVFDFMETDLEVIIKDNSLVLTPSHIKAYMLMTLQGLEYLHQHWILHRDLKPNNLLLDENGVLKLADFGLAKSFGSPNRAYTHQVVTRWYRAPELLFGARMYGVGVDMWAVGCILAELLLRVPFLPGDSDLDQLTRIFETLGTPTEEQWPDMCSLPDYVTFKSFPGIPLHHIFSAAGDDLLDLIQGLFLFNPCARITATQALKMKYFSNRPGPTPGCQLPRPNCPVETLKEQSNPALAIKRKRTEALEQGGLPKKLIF
# [3] = Inhibition of CDC2L1 isoform 4 assessed as activity at 1 uM relative to control
# [4] = Inhibition of CDC2L2 isoform 1 assessed as activity at 1 uM relative to control
SMILES,Activity [1] [%],Activity [2] [%],Activity [3] [%],Activity [4] [%]
Cc1cccc(-c2cc3nc(NCCN)c4ncc(C)n4c3s2)c1,15,58,42,68
Cc1cnc2c(NCCN)nc3cc(-c4cccc(CO)c4)sc3n12,4.6,0.5,2.1,6.3
